Experimental data taken from ChEMBL document CHEMBL5113393, “Discovery of 2-((2-methylbenzyl)thio)-6-oxo-4-(3,4,5-trimethoxyphenyl)-1,6-dihydropyrimidine-5-carbonitrile as a novel and effective bromodomain and extra-terminal (BET) inhibitor for the treatment of sepsis” (Eur J Med Chem, 2022).
Activity calls are given as the source filed them. The calls are words filed in the database; no cut-off is given here.

Columns and labels:
RAW264.7 [1] = assay: Antiinflammatory activity in mouse RAW264.7 cells assessed as inhibition of LPS-induced NO production at 5 uM preincubated for 2 hrs followed by LPS stimulation and measured after 22 hrs by Griess reagent-based assay relative to control; type: functional; conditions: time 24 hrs
[2] = molecular target: T1, Bromodomain-containing protein 4 (Homo sapiens, UniProt O60885); assay: Inhibition of BRD4 BD1 (unknown origin) using FAM-labeled JQ-1 as fluorescent substrate assessed as inhibition constant incubated for 30 mins by competitive fluorescence polarization method
RAW264.7 [3] = assay: Antiinflammatory activity in mouse RAW264.7 cells assessed as inhibition of LPS-induced NO production at 10 uM preincubated for 2 hrs followed by LPS stimulation and measured after 22 hrs by Griess reagent-based assay relative to control; type: functional; conditions: time 24 hrs
[4] = molecular target: T1, Bromodomain-containing protein 4; assay: Inhibition of BRD4 BD1 (57 to 168 residues) (unknown origin) transfected in Escherichia coli (DE3) using FAM-labeled JQ-1 as fluorescent substrate at 100 uM incubated for 30 mins by competitive fluorescence polarization method relative to control
[5] = molecular target: T1, Bromodomain-containing protein 4; assay: Inhibition of BRD4 BD2 (352 to 457 residues) (unknown origin) transfected in Escherichia coli (DE3) using FAM-labeled JQ-1 as fluorescent substrate at 100 uM incubated for 30 mins by competitive fluorescence polarization method relative to control
[6] = molecular target: T1, Bromodomain-containing protein 4; assay: Inhibition of BRD4 BD1 (57 to 168 residues) (unknown origin) transfected in Escherichia coli (DE3) using FAM-labeled JQ-1 as fluorescent substrate at 5 uM incubated for 30 mins by competitive fluorescence polarization method relative to control
[7] = molecular target: T1, Bromodomain-containing protein 4; assay: Inhibition of BRD4 BD2 (352 to 457 residues) (unknown origin) transfected in Escherichia coli (DE3) using FAM-labeled JQ-1 as fluorescent substrate at 5 uM incubated for 30 mins by competitive fluorescence polarization method relative to control
[8] = molecular target: T1, Bromodomain-containing protein 4; assay: Inhibition of BRD4 BD1 (57 to 168 residues) (unknown origin) transfected in Escherichia coli (DE3) using FAM-labeled JQ-1 as fluorescent substrate at 50 uM incubated for 30 mins by competitive fluorescence polarization method relative to control
[9] = molecular target: T1, Bromodomain-containing protein 4; assay: Inhibition of BRD4 BD2 (352 to 457 residues) (unknown origin) transfected in Escherichia coli (DE3) using FAM-labeled JQ-1 as fluorescent substrate at 50 uM incubated for 30 mins by competitive fluorescence polarization method relative to control
[10] = molecular target: T1, Bromodomain-containing protein 4; assay: Binding affinity to His-tagged biotinylated BRD4 BD1 (unknown origin) assessed as dissociation constant by biolayer interferometry analysis
[11] = molecular target: T1, Bromodomain-containing protein 4; assay: Binding affinity to His-tagged biotinylated BRD4 BD1 (unknown origin) assessed as binding constant (Kon) by biolayer interferometry analysis
[12] = molecular target: T1, Bromodomain-containing protein 4; assay: Binding affinity to His-tagged biotinylated BRD4 BD1 (unknown origin) assessed as dissociation rate constant by biolayer interferometry analysis
Mus musculus = assay: Protection against LPS-induced sepsis in C57BL/6 mouse model assessed as reduction in hypothermia at 10 mg/kg, ip qd administered for 3 days followed by LPS stimulation for 12 hrs and measured every 1 hr by digital thermometer; type: functional, organism-based; conditions: time 84.0 hrs

SMILES | Ki [2] [nM] | inhibition [4] [%] | inhibition [5] [%] | other results
COc1cc(-c2nc(SCc3ccccc3[N+](=O)[O-])[nH]c(=O)c2C#N)cc(OC)c1OC | 790 |  |  | inhibition at 5 µM (RAW264.7 [1]): 29.3%; inhibition at 10 µM (RAW264.7 [3]): 32.4%
N#Cc1c(-c2ccc(OC(F)(F)F)cc2)nc(SCc2ccccc2Cl)[nH]c1=O |  | 45.8 | 17.1 | 
COc1ccccc1-c1nc(SCc2ccccc2Cl)[nH]c(=O)c1C#N |  | 44.3 | 47.5 | 
COc1ccc(-c2nc(SCc3ccccc3Cl)[nH]c(=O)c2C#N)c(OC)c1OC |  | 53.1 | 51.7 | 
COc1cc(-c2nc(SCc3ccccc3Cl)[nH]c(=O)c2C#N)cc(O)c1OC | 1950 | 69.3 | 63.4 | 
COc1ccc(CNC(=O)C2CCCN(c3nc4c(-c5ccc(C)cc5)csc4c(=O)[nH]3)C2)cc1 (stereo not drawn) |  |  |  | inhibition [6]: 2.1%; inhibition [7]: 3.8%; inhibition [8]: 21.9%; inhibition [9]: 29.7%
CNC(=O)c1cccc(-c2nc(SCc3ccccc3Cl)[nH]c(=O)c2C#N)c1 |  | 66.4 | 65.9 | 
N#Cc1c(-c2ccc3c(c2)OCO3)nc(SCc2ccccc2Cl)[nH]c1=O |  | 45.3 | 44.3 | 
COc1ccc(OC)c(-c2nc(SCc3ccccc3Cl)[nH]c(=O)c2C#N)c1 |  | 51.6 | 43 | 
COc1cc(-c2nc(SCc3cccc(C)c3C)[nH]c(=O)c2C#N)cc(OC)c1OC | 1730 |  |  | inhibition at 5 µM (RAW264.7 [1]): 51.8%; inhibition at 10 µM (RAW264.7 [3]): 78.2%
Cc1cc2nc(SCC(=O)N(C)c3cccc(Cl)c3)[nH]c(=O)c2[nH]1 |  |  |  | inhibition [6]: 4.63%; inhibition [7]: 3.96%; inhibition [8]: 14.7%; inhibition [9]: 17.2%
Oc1ccc(-c2[nH]c(-c3ccccc3O)nc2-c2ccccc2)cc1 |  |  |  | inhibition [6]: 11.8%; inhibition [7]: 3.96%; inhibition [8]: 53%; inhibition [9]: 17.2%
N#Cc1c(-c2ccc3c(c2)OCCO3)nc(SCc2ccccc2Cl)[nH]c1=O |  | 55.5 | 53.8 | 
COc1cc(-c2nc(SCc3cc(C)cc(C)c3)[nH]c(=O)c2C#N)cc(OC)c1OC | 1480 |  |  | inhibition at 5 µM (RAW264.7 [1]): 69.3%; inhibition at 10 µM (RAW264.7 [3]): 92.1%
COc1cc(-c2nc(SCc3ccccc3Cl)[nH]c(=O)c2C#N)cc(Cl)c1OC |  | 59.7 | 59.6 | 
COc1cc(-c2nc(SCc3ccccc3Cl)[nH]c(=O)c2C#N)cc(OC)c1OC | 1740 | 84.7 | 74.3 | inhibition at 5 µM (RAW264.7 [1]): 75.2%; Kd [10]: 0.756 µM; inhibition at 10 µM (RAW264.7 [3]): 99.7%; K [11]: 3.84 10^4/Ms; Kdiss [12]: 2.9 10^-2/s
N#Cc1c(O)nc(SCc2ccccc2Cl)nc1-c1ccccc1 | 12300 | 47 | 46.5 | inhibition [6]: 7.01%; inhibition [7]: 19.3%; Kd [10]: 184 µM; inhibition [8]: 71.9%; K [11]: 7.28 10^2/Ms; Kdiss [12]: 1.34 10^-1/s; inhibition [9]: 83.5%
COc1ccc(-c2nc(SCc3ccccc3Cl)[nH]c(=O)c2C#N)cc1OC | 3230 | 65.1 | 68.7 | 
COc1ccc(-c2nc(SCc3ccccc3Cl)n(C)c(=O)c2C#N)cc1OC | 18300 |  |  | inhibition at 5 µM (RAW264.7 [1]): 5.19%; inhibition at 10 µM (RAW264.7 [3]): 14.9%
CCOc1ccc(-c2nc(SCc3ccccc3Cl)[nH]c(=O)c2C#N)cc1OC |  | 64.7 | 55.7 | 

SMILES | Ki [2] [nM] | inhibition [4] [%] | inhibition [5] [%] | other results
COc1cc(-c2nc(SCc3ccccc3C(F)(F)F)[nH]c(=O)c2C#N)cc(OC)c1OC | 1190 |  |  | inhibition at 5 µM (RAW264.7 [1]): 62.4%; inhibition at 10 µM (RAW264.7 [3]): 81%
CCOc1ccc(-c2nc(SCc3ccccc3Cl)[nH]c(=O)c2C#N)cc1OCC |  | 56.8 | 55.9 | 
COc1cc(-c2nc(SCc3ccc(C)cc3)[nH]c(=O)c2C#N)cc(OC)c1OC | 1380 |  |  | inhibition at 5 µM (RAW264.7 [1]): 65.3%; inhibition at 10 µM (RAW264.7 [3]): 87.4%
CCOc1cc(-c2nc(SCc3ccccc3Cl)[nH]c(=O)c2C#N)ccc1OC |  | 65.3 | 62.4 | 
COc1ccc(-c2nc(NCc3ccccc3)[nH]c(=O)c2C#N)cc1OC | 16300 |  |  | 
COc1ccc(-c2nc(SCc3ccccc3Cl)[nH]c(=O)c2C#N)cc1 |  | 44.1 | 18.8 | 
COC(=O)c1cc(-c2nc(SCc3ccccc3Cl)[nH]c(=O)c2C#N)ccc1OC |  | 42.9 | 48 | 
COc1cccc(-c2nc(SCc3ccccc3Cl)[nH]c(=O)c2C#N)c1OC |  | 50.7 | 51.3 | 
COc1ccc(-c2nc(SCCc3ccccc3Cl)[nH]c(=O)c2C#N)cc1OC | 7580 |  |  | 
COc1cccc(-c2cc(=O)[nH]c(N3CCN(c4ccccc4)CC3)n2)c1 |  |  |  | inhibition [6]: 1.56%; inhibition [7]: 11%; inhibition [8]: 39%; inhibition [9]: 41.7%
COc1cc(-c2nc(SCc3ccccc3F)[nH]c(=O)c2C#N)cc(OC)c1OC | 870 |  |  | inhibition at 5 µM (RAW264.7 [1]): 33.7%; inhibition at 10 µM (RAW264.7 [3]): 94.1%
COc1ccc(-c2nc(SCc3ccccc3Cl)[nH]c(=O)c2C#N)cc1C |  | 53.1 | 55.1 | 
COc1ccc(-c2nc(SCc3ccccc3Cl)ncc2C#N)cc1OC | 4930 |  |  | 
COc1ccccc1NS(=O)(=O)c1cc(-c2n[nH]c(=O)c3ccccc23)ccc1C |  |  |  | inhibition [7]: 1.26%; inhibition [8]: 19%; inhibition [9]: 21.7%
COc1cc(-c2nc(SCc3cccc(C)c3)[nH]c(=O)c2C#N)cc(OC)c1OC | 1250 |  |  | inhibition at 5 µM (RAW264.7 [1]): 14.9%; inhibition at 10 µM (RAW264.7 [3]): 75.5%
COc1cc(OC)cc(-c2nc(SCc3ccccc3Cl)[nH]c(=O)c2C#N)c1 |  | 40.3 | 47.2 | 
Cc1sc2c(c1C)C(c1ccc(Cl)cc1)=N[C@@H](CC(=O)Nc1ccc(O)cc1)c1nnc(C)n1-2 [BIRABRESIB] |  |  |  | inhibition at 5 µM (RAW264.7 [1]): 93.4%; inhibition at 10 µM (RAW264.7 [3]): 99.9%; Activity (Mus musculus): Active
Cc1cccc(OCc2occc2C(=O)N(C)Cc2cc(O)nc3ccccc23)c1 |  |  |  | inhibition [6]: 3.59%; inhibition [7]: 4.71%; inhibition [8]: 11.3%; inhibition [9]: 15.1%
COc1cccc(-c2nc(SCc3ccccc3Cl)[nH]c(=O)c2C#N)c1 |  | 45.3 | 45.1 | 
COc1cc(-c2nc(SCc3ccccc3Cl)[nH]c(=O)c2C#N)ccc1OC(F)F |  | 54.4 | 59.2 | 
